What follows are substances tested against T1, streptavidin (Streptomyces avidinii, UniProt P22629) (assay: Cy5-streptavidin binding on HotSpot discovery array, 5-mer L-peptide library). Conditions: 5-mer L-peptide library array, Cy5-streptavidin; from average of three arrays.
T1 construct: purchased GE Healthcare (Little Chalfont, UK)
Source text: To identify hotspot sequences that bind to streptavidin (SA), we bound Cy5-SA to an array library of 2,476,099 5-mer L-peptides synthesized with 19 of 20 natural amino acids (excluding cysteine). The fluorescence signal intensity was aggregated across three independently synthesized arrays; then the 2,047 peptides with a signal-to-background ratio (S/B) >4 were selected. The data was further filtered to select 1,100 peptides for which signal intensities were highly correlated on all 3 arrays (the percentage of mean deviation to mean was <10%, see Supplementary dataset Table 2A). Most selected sequences (1,019 of 1,100) contained HP, PQ, or PM sequences: their presence would be expected in the well-known HPQ and HPM streptavidin binders[13]–[18].
The comprehensive peptide library included 2,476,099 5-mer peptides synthesized in a single copy with 19 of 20 L- or D-amino acids (excluding cysteine). Libraries were flanked on both N- and C-termini by linkers of 1 or 3 amino acids using a 3:1 glycine-serine mixture.
Cy5™-streptavidin (Cy5-SA) was purchased from GE Healthcare (Little Chalfont, UK). Freshly deprotected arrays were used in each experiment. Streptavidin binding to all arrays was performed with 0.5 µg/ml Cy5-SA either in binding buffer containing 10 mM Tris-HCl (pH 7.4), 1% alkali-soluble casein (EMD Millipore), 0.05% Tween-20 or in 10 mM Tris-HCl (pH 7.4), 4% BSA (Roche, Basel, Switzerland), 0.05% Tween-20 in a 30 mL PAP Jar container (Evergreen Scientific, Vernon, CA) overnight at 4° C. After incubation, arrays were washed in 20 mM Tris-HCl (pH 7.8), 0.2 M NaCl, 1% SDS or 1X TBS (pH 7.4) for 30 sec followed by a 1 min wash in water, and then dried by spinning in a microcentrifuge equipped with an array holder.
Cy5 fluorescence intensity of the arrays was measured with an MS200 scanner (Roche NimbleGen, Madison, WI) at resolution 2 µm, wavelength 635 nm, gain 25%, and laser intensity 100%. Cy5 signal intensities were extracted using Image Extraction Software (Roche NimbleGen). Data pre-processing, normalization, and statistical tests were performed using the language R. Data visualization and analysis was performed with the Spotfire 6.5.0 (Tibco, Boston, MA) software platform. Distance analysis and principle component analysis of distance matrices were performed with the R package PEPLIB[19].

T1 sequence (P22629 25-183): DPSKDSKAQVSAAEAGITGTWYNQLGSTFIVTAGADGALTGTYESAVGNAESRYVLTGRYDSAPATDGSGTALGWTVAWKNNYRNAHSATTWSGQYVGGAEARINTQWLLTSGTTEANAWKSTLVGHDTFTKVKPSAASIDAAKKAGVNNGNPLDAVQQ

| Substance | S/B (signal to background ratio) |
| --- | --- |
| HPQGE | 40.1 |
| HPQGG | 131.5 |
| HPQGK | 29.8 |
| HPQGP | 162.1 |
| HPQGV | 45.0 |
| HPQGY | 53.6 |
| HPQHF | 18.9 |
| HPQHG | 57.1 |
| HPQHN | 28.0 |
| HPQIG | 31.0 |
| HPQMS | 20.7 |
| HPQND | 53.5 |
| HPQNE | 48.0 |
| HPQNI | 48.9 |
| HPQNK | 28.4 |
| HPQNL | 57.7 |
| HPQNR | 50.5 |
| HPQQG | 47.0 |
| HPQQN | 23.0 |
| HPQQS | 19.2 |
| HPQRG | 33.4 |
| HPQRW | 30.7 |

| Substance | S/B (signal to background ratio) |
| --- | --- |
| HPQSS | 28.2 |
| HPQTG | 28.1 |
| HPQVD | 33.5 |
| HPQVE | 19.8 |
| HPQVF | 56.9 |
| HPQVH | 57.8 |
| HPQVQ | 49.2 |
| HPQVR | 28.4 |
| HPQWG | 26.9 |
| HPQYA | 20.2 |
| HPQYG | 55.1 |
| HQHPM | 47.3 |
| HQHPQ | 145.4 |
| HRHPQ | 149.4 |
| HSHPM | 54.9 |
| HSHPQ | 136.9 |
| HTHPQ | 139.1 |
| HWHPQ | 166.7 |
| HYHPQ | 184.3 |
| IAHPM | 46.1 |
| IAHPQ | 136.2 |
| IFHPQ | 166.8 |

| Substance | S/B (signal to background ratio) |
| --- | --- |
| IGHPQ | 174.2 |
| IHPQA | 150.7 |
| IHPQF | 148.4 |
| IHPQN | 128.3 |
| IHPQQ | 32.5 |
| IKHPM | 19.0 |
| ILHPQ | 121.2 |
| IMHPM | 35.1 |
| IPHPM | 35.9 |
| IPHPQ | 167.5 |
| IQHPM | 50.9 |
| IQHPQ | 139.6 |
| IRHPQ | 165.9 |
| ISHPQ | 142.0 |
| ITHPM | 41.5 |
| IVHPM | 23.5 |
| IWHPQ | 174.8 |
| IYHPQ | 169.4 |
| KFHPM | 29.8 |
| KHHPM | 29.1 |
| KHPMA | 27.5 |
| KHPQF | 52.9 |

Same assay, conditions: 5-mer L-peptide library array, Cy5-streptavidin; from the average of three arrays

| Substance | S/B (signal to background ratio) |
| --- | --- |
| HPQFY | 70.7 |
| HPQGA | 92.1 |
| HPQGD | 62.3 |
| HPQGF | 63.7 |
| HPQGH | 86.0 |
| HPQGN | 108.4 |
| HPQGQ | 73.5 |
| HPQGS | 105.2 |
| HPQGT | 67.0 |
| HPQGW | 60.3 |
| HPQMG | 59.2 |
| HPQNA | 108.8 |
| HPQNF | 94.0 |
| HPQNN | 112.8 |
| HPQNP | 89.0 |
| HPQNQ | 86.9 |
| HPQNS | 112.6 |
| HPQNT | 67.6 |
| HPQNV | 84.4 |
| HPQNW | 93.4 |
| HPQNY | 103.6 |
| HPQSG | 90.1 |
| HPQVA | 67.2 |
| HPQVG | 114.3 |

| Substance | S/B (signal to background ratio) |
| --- | --- |
| HPQVN | 63.9 |
| HPQVP | 62.1 |
| HPQVS | 77.3 |
| HPQVY | 64.1 |
| HPQYN | 66.1 |
| HRHPM | 61.8 |
| HVHPQ | 105.7 |
| HYHPM | 88.3 |
| IDHPQ | 88.2 |
| IEHPQ | 67.6 |
| IFHPM | 60.0 |
| IGHPM | 72.3 |
| IHPMA | 70.9 |
| IHPQG | 85.9 |
| IRHPM | 63.6 |
| IVHPQ | 94.3 |
| KAHPQ | 77.0 |
| KFHPQ | 81.9 |
| KGHPQ | 65.1 |
| KHHPQ | 96.3 |
| KHPQA | 92.8 |
| KHPQG | 73.1 |
| KHPQN | 64.6 |

Same assay, conditions: 5-mer L-peptide library, from the average of three arrays

| Substance | S/B (signal to background ratio) |
| --- | --- |
| HPQIP | 4.0 |
| HPQKF | 4.8 |
| HPQLY | 4.1 |
| HPQPQ | 4.4 |
| HPQPW | 4.6 |
| HPQQK | 4.4 |
| HPQRI | 5.0 |
| HPQSK | 4.7 |
| HPQTV | 4.3 |
| HPQYL | 4.7 |
| HPRQF | 4.3 |
| HPRWG | 4.2 |
| HPRWM | 4.5 |
| HPWRH | 5.0 |
| HPWRN | 4.7 |
| HPWRS | 4.0 |
| HPWRT | 4.4 |
| IAAYH [L-amino acid 5-mer array peptide] | 4.8 |
| KHPMF | 4.5 |
| KHPMH | 5.1 |
| KHPMM | 4.9 |

Same assay, conditions: average of three arrays, L-peptide 5-mer library

| Substance | S/B (signal to background ratio) |
| --- | --- |
| IAAYH [L-amino acid 5-mer array peptide] | 4.8 |

Same assay, conditions: signal to background ratio; 5-mer L-peptide library array, Cy5-streptavidin

| Substance | S/B |
| --- | --- |
| HPQHL | 9.2 |
| HPQHS | 18.1 |
| HPQHV | 13.6 |
| HPQHY | 11.4 |
| HPQIF | 6.3 |
| HPQIN | 12.2 |
| HPQIS | 8.8 |
| HPQKG | 18.2 |
| HPQKN | 7.8 |
| HPQKY | 5.5 |
| HPQLG | 9.1 |
| HPQMR | 7.1 |
| HPQMY | 11.1 |
| HPQPD | 6.3 |
| HPQPF | 5.7 |
| HPQPG | 5.6 |
| HPQPN | 5.5 |
| HPQPP | 6.0 |
| HPQQD | 7.4 |
| HPQQH | 12.2 |

| Substance | S/B |
| --- | --- |
| HPQQQ | 10.8 |
| HPQQW | 16.8 |
| HPQRD | 10.7 |
| HPQRF | 7.3 |
| HPQRH | 8.8 |
| HPQRN | 17.7 |
| HPQRP | 9.4 |
| HPQRQ | 9.1 |
| HPQRS | 15.9 |
| HPQRV | 5.3 |
| HPQSF | 13.1 |
| HPQSH | 12.3 |
| HPQSI | 7.3 |
| HPQST | 12.9 |
| HPQSW | 18.3 |
| HPQTA | 10.4 |
| HPQTQ | 5.4 |
| HPQWA | 8.4 |
| HPQWQ | 5.5 |
| HPQYD | 8.0 |

| Substance | S/B |
| --- | --- |
| HPQYK | 6.3 |
| HPQYQ | 15.5 |
| HPQYR | 7.0 |
| HPQYW | 5.7 |
| HPQYY | 9.4 |
| HPTPW | 15.1 |
| HPVPP | 12.4 |
| HPWRF | 7.0 |
| HPWRY | 11.4 |
| IHPMM | 6.6 |
| IHPQD | 10.4 |
| IHPQK | 11.6 |
| IHPQT | 13.6 |
| IHPQW | 12.0 |
| KHPMN | 5.9 |
| KHPMS | 8.8 |
| KHPMV | 6.9 |
| KHPMY | 6.0 |
| KHPQT | 7.6 |

— PMC5608804, “Stepwise Evolution Improves Identification of Diverse Peptides Binding to a Protein Target” (Scientific Reports, 2017)
